Legend:
Assay type in all cases: cell-based, human
[1] = tested on: MMP-13; test: MMP-13 expression (ELISA of culture supernatant) in 2D cultured SW-1353 cells stimulated with IL-β; settings: 2D SW-1353, 10 mM of inhibitor together with 0, 10, 100 and 1000 μl/ml DNA fragment mixture, IL-β 10 ng/ml
Method: (§1) The human chondrosarcoma cell line SW-1353 (HTB-94, ATCC, Mansassas, Va., USA) was cultured in DMEM (Dulbecco Modified Eagle's medium) supplemented with 10% FBS (fetal bovine serum) and 1% antibiotic-antifungal agent. An incubator for cell culture was kept at 37° C. under 5% CO2. For cell culture, cells were seeded into a culture flask at a density of 1.2×10^4 cells/cm^2. When a confluence of 80-90% was reached, the cells were trypsinized. The cells were subcultured 9 times before use in the experiment.
(§2) SW-1353 cells were treated with 10-1000 μg/ml of the DNA fragment mixture and 0.1-10 mM of each of glucosamine (GLN), N-acetyl-D-glucosamine (NAG), alliin, sodium butyrate (SB) and chondroitin sulfate (CS) for 24 hours, and stimulated with 10 ng/ml of IL-β for analysis of MMP expression therein.
(§3) To evaluate MMP expression, IL-β was dissolved in serum-free DMEM medium and used at a final concentration of 10 ng/ml. The cells were cultured at 37° C. under 5% CO2. The cell culture supernatant was collected, centrifuged, and then stored at −80° C. until use in the experiment. The amounts of MMP-3 and MMP-13 in the culture supernatant were measured using commercially available ELISA (enzyme-linked immunosorbent assays) according to the manufacturer's protocol.
(§4) Cells of test groups were cultured with 10 ng/ml of IL-β under the same conditions as those of the control group.

[2] = tested on: MMP-3; test: MMP-3 expression (ELISA of culture supernatant) in 2D cultured SW-1353 cells stimulated with IL-β; settings: 2D SW-1353, 10 mM of inhibitor together with 0, 10, 100 and 1000 μg/ml DNA fragment mixture, IL-β 10 ng/ml
Method: as §1, §2, §3, §4

[3] = tested on: MMP-13; test: MMP-13 expression (ELISA) in 3D cultured SW-1353 cells stimulated with IL-β; settings: 3D SW-1353, 10 mM of inhibitor together with 0, 10, 100 and 1000 μl/ml DNA fragment mixture, IL-β 10 ng/ml
Method: (§5) SW-1353 cells were grown on a 3D collagen […] with or without a DNA fragment mixture (polydeoxyribonucleotides (PDRN), 450 kDa, sterilized, BR Pharm Co, Wonju, South Korea). SW-1353 cells were harvested from the 2D culture, and the cells in the medium were counted. Next, the cells were spun down and cooled. For use of the DNA fragment mixture as an extracellular matrix (ECM) additive to 3D chondrocytes, 10 mg/ml of the DNA fragment mixture was dissolved in 10× PBS and diluted with 10× PBS at concentrations of 0 μg/ml, 10 μg/ml, 100 μg/ml and 1000 μg/ml. 10× PBS, containing different concentrations of the DNA fragment mixture, and rat tail collagen I solution diluted with DMEM at a concentration of 4 mg/ml, were mixed at a ratio of 1:10, and the mixture was adjusted to a pH of 7.0-7.4 with NaOH. Thereafter, the cells were carefully shaken to avoid air bubbles from entering the collagen solution. 2 μl of the solution was added to each well to construct a 3D gel-cell. The gel was kept in an incubator (37° C. and 5% CO2) for 45 minutes, and the 3D gel-cell matrix was exposed to serum-free medium for 48 hours. For drug screening from the DNA fragment mixture, the DNA fragment mixture was treated with serum-free medium after the SW-1353 cells were sufficiently grown.
as §2, §3
(§6) During 3D cell culture, chondrocytes were cultured in 10% serum-containing medium or serum-free medium, and the cultured chondrocytes were stimulated with IL-β (10 ng/ml).
(§7) In addition, after 24 hours of treatment with the DNA fragment mixture and IL-β in serum-free medium, two markers (MMP-3 and MMP-13) which are frequently involved in degenerative arthritis disease were analyzed.

[4] = tested on: MMP-3; test: MMP-3 expression (ELISA) in 3D cultured SW-1353 cells stimulated with IL-β; settings: 3D SW-1353, 10 mM of inhibitor together with 0, 10, 100 and 1000 μg/ml DNA fragment mixture, IL-β 10 ng/ml
Method: as §5, §2, §3, §6, §7

CCCC(=O)[O-].[Na+] [sodium butyrate]
decreased: expression level of MMP-13 protein [1] | expression level of MMP-3 protein [2] | expression level of MMP-13 protein [3] | expression level of MMP-3 protein [4]

N[C@H]1C(O)O[C@H](CO)[C@@H](O)[C@@H]1O (some centres unmarked) [glucosamine]
decreased: expression level of MMP-13 protein [1] | expression level of MMP-3 protein [2] | expression level of MMP-13 protein [3] | expression level of MMP-3 protein [4]

CC(=O)N[C@H]1C(O)O[C@H](CO)[C@@H](O)[C@@H]1O (stereo partly drawn) [N-acetyl-D-glucosamine]
decreased: expression level of MMP-13 protein [1] | expression level of MMP-3 protein [2] | expression level of MMP-13 protein [3] | expression level of MMP-3 protein [4]

alliin
decreased: expression level of MMP-13 protein [1] | expression level of MMP-3 protein [2] | expression level of MMP-13 protein [3] | expression level of MMP-3 protein [4]

chondroitin sulfate
decreased: expression level of MMP-13 protein [1] | expression level of MMP-3 protein [2] | expression level of MMP-13 protein [3] | expression level of MMP-3 protein [4]

From patent publication US20190374566A1, “COMPOSITION FOR PREVENTING AND TREATING ARTHRITIS, INCLUDING DNA FRAGMENT MIXTURE AND MATRIX METALLOPROTEINASE PRODUCTION INHIBITOR” (BR PHARM CO., LTD., priority 2018, published 2019)
